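Values below derive from 48-hour exposures of cells grown in 96-well plates, with endpoints linearly interpolated between the two concentrations bracketing the appropriate inhibition level. GI50 is the concentration that inhibits growth by half.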 Activity calls are given as the source filed them. No stated cut-off is given here; in the data, active = GI50 up to about 1.1 µM and inactive = higher.
Key:
Experiment in all cases: NCI anticancer screen, dose series, 48 h
786-0 = tested on: 786-0
A549 = tested on: A549
EKVX = tested on: EKVX
HCT-116 = tested on: HCT-116
Hs-578T = tested on: Hs-578T
K562 = tested on: K562
KM12 = tested on: KM12
MDA-MB-435 = tested on: MDA-MB-435
Malme-3M = tested on: Malme-3M
NCI-H460 = tested on: NCI-H460
OVCAR-4 = tested on: OVCAR-4
RPMI-8226 = tested on: RPMI-8226
SF-268 = tested on: SF-268
SF-295 = tested on: SF-295
SF-539 = tested on: SF-539
SN12C = tested on: SN12C
SNB-19 = tested on: SNB-19
T47D = tested on: T47D
UACC-62 = tested on: UACC-62
UO-31 = tested on: UO-31

Structure (SMILES) | GI50 (786-0) | GI50 (A549) | GI50 (EKVX) | GI50 (HCT-116) | GI50 (Hs-578T) | GI50 (K562) | GI50 (KM12) | GI50 (MDA-MB-435) | GI50 (Malme-3M) | GI50 (NCI-H460) | GI50 (OVCAR-4) | GI50 (RPMI-8226) | GI50 (SF-268) | GI50 (SF-295) | GI50 (SF-539) | GI50 (SN12C) | GI50 (SNB-19) | GI50 (T47D) | GI50 (UACC-62) | GI50 (UO-31)
Cc1cc2c(nn1)CCc1c-2no[n+]1[O-] | > 100 µM (inactive) | > 100 µM (inactive) | > 100 µM (inactive) | > 100 µM (inactive) | > 100 µM (inactive) | > 100 µM (inactive) | > 100 µM (inactive) | > 100 µM (inactive) | > 100 µM (inactive) | > 100 µM (inactive) | > 100 µM (inactive) | > 100 µM (inactive) | > 100 µM (inactive) | > 100 µM (inactive) | > 100 µM (inactive) | > 100 µM (inactive) | > 100 µM (inactive) | > 100 µM (inactive) | > 100 µM (inactive) | > 100 µM (inactive)
O=C(O)c1cccc(S(=O)(=O)NCCO)c1 | > 100 µM (inactive) | > 100 µM (inactive) | > 100 µM (inactive) | > 100 µM (inactive) | > 100 µM (inactive) | > 100 µM (inactive) | > 100 µM (inactive) | > 100 µM (inactive) | > 100 µM (inactive) | > 100 µM (inactive) | > 100 µM (inactive) | > 100 µM (inactive) | > 100 µM (inactive) | > 100 µM (inactive) | > 100 µM (inactive) | > 100 µM (inactive) | > 100 µM (inactive) | > 100 µM (inactive) | > 100 µM (inactive) | > 100 µM (inactive)
O=C1N/C(=N\N=C\c2ccccc2)C(c2ccccc2)O1 (stereo not given) | 47.9 µM (inactive) | 45.3 µM (inactive) | 66.8 µM (inactive) | 37.3 µM (inactive) | > 100 µM (inactive) | 35.8 µM (inactive) | > 100 µM (inactive) | > 100 µM (inactive) | > 100 µM (inactive) | 38.4 µM (inactive) | 38.5 µM (inactive) | 34.4 µM (inactive) | 52.2 µM (inactive) | 42.5 µM (inactive) | > 100 µM (inactive) | 71.1 µM (inactive) | > 100 µM (inactive) | 79.8 µM (inactive) | 75.7 µM (inactive) | 15.9 µM (inactive)
CC(C)(C)NC(NC(C)(C)C)=C(/C=C(/Cl)[N+](=O)[O-])[N+](=O)[O-] | 34.7 µM (inactive) | 25.7 µM (inactive) | > 100 µM (inactive) | 34.3 µM (inactive) | 56.9 µM (inactive) | 55.1 µM (inactive) | > 100 µM (inactive) | 19.5 µM (inactive) | 10.3 µM (inactive) | 52.2 µM (inactive) | 17.1 µM (inactive) | 67.3 µM (inactive) | 74.6 µM (inactive) | > 100 µM (inactive) | 38.3 µM (inactive) | > 100 µM (inactive) | > 100 µM (inactive) | 68.5 µM (inactive) | 42.6 µM (inactive) | > 100 µM (inactive)
C/C(=N\NC(=S)Nc1ccc(Cl)cc1)c1nc2cccnc2[nH]1 | 2.17 µM (inactive) | 2.38 µM (inactive) | 0.608 µM (active) | 1.53 µM (inactive) | 15.1 µM (inactive) | 3.33 µM (inactive) | 1.23 µM (inactive) | 3.44 µM (inactive) | 3.35 µM (inactive) | 0.665 µM (active) | 5.64 µM (inactive) | 3.27 µM (inactive) | 0.438 µM (active) | 2.15 µM (inactive) | 0.938 µM (active) | 2.81 µM (inactive) | 2.08 µM (inactive) | 3.37 µM (inactive) | 1.87 µM (inactive) | 0.713 µM (active)
CN(C)CCNC(=O)c1cccc2nc3c4ccccc4c4ccccc4c3nc12 | 2.28 µM (inactive) | 2.74 µM (inactive) | 5.77 µM (inactive) | 1.53 µM (inactive) | 1.31 µM (inactive) | 1.52 µM (inactive) | 1.56 µM (inactive) | 1.81 µM (inactive) | 1.8 µM (inactive) | 0.875 µM (active) | 1.8 µM (inactive) | 1.56 µM (inactive) | 0.569 µM (active) | 2.16 µM (inactive) | 1.72 µM (inactive) | 1.92 µM (inactive) | 3.48 µM (inactive) | 8.13 µM (inactive) | 2.35 µM (inactive) | 9.44 µM (inactive)
Cc1ccc(C(=O)C(Cl)C(Cl)c2ccc(C)cc2)cc1 (stereo not given) | 2.03 µM (inactive) | 21.9 µM (inactive) | 5.42 µM (inactive) | 1.88 µM (inactive) | 21.8 µM (inactive) | 1.49 µM (inactive) | 3.68 µM (inactive) | 2.97 µM (inactive) | 15.3 µM (inactive) | 8.38 µM (inactive) | 2.33 µM (inactive) | 1.56 µM (inactive) | 5.56 µM (inactive) | 11.4 µM (inactive) | 2.49 µM (inactive) | 1.82 µM (inactive) | 8.2 µM (inactive) | 2.08 µM (inactive) | 3.67 µM (inactive) | 2.06 µM (inactive)
O=C(O)C1C2c3ccccc3C(c3ccccc32)C1C(=O)NCC1CC1 (stereo not given) | > 100 µM (inactive) | 62.2 µM (inactive) | 71.9 µM (inactive) | 47.4 µM (inactive) | 63.5 µM (inactive) | 45.3 µM (inactive) | 55.3 µM (inactive) | 51.2 µM (inactive) | > 100 µM (inactive) | 40.2 µM (inactive) | 79.1 µM (inactive) | 24.7 µM (inactive) | 94.4 µM (inactive) | 46.2 µM (inactive) | > 100 µM (inactive) | 55.2 µM (inactive) | > 100 µM (inactive) | 56.8 µM (inactive) | 38.5 µM (inactive) | 71.4 µM (inactive)
O=C(c1ccccc1)C(Nc1ccc2ccccc2c1)c1ccccc1 (stereo not given) | 36.7 µM (inactive) | 33.3 µM (inactive) | 17.6 µM (inactive) | 15.7 µM (inactive) | 40.2 µM (inactive) | 7.36 µM (inactive) | 19.8 µM (inactive) | 4.85 µM (inactive) | 30.2 µM (inactive) | 21.2 µM (inactive) | 38.1 µM (inactive) | 11.1 µM (inactive) | 39.5 µM (inactive) | 24.7 µM (inactive) | 54.2 µM (inactive) | 26.9 µM (inactive) | 34.7 µM (inactive) | 11.3 µM (inactive) | 18.2 µM (inactive) | > 65 µM (inactive)
CCOC(=O)NC(Nc1ncn(C(NC(=O)OCC)(C(F)(F)F)C(F)(F)F)n1)(C(F)(F)F)C(F)(F)F | > 100 µM (inactive) | > 100 µM (inactive) | > 100 µM (inactive) | > 100 µM (inactive) | > 100 µM (inactive) | > 100 µM (inactive) | > 100 µM (inactive) | > 100 µM (inactive) | > 100 µM (inactive) | > 100 µM (inactive) | > 100 µM (inactive) | > 100 µM (inactive) | > 100 µM (inactive) | > 100 µM (inactive) | > 100 µM (inactive) | > 100 µM (inactive) | > 100 µM (inactive) | 49 µM (inactive) | > 100 µM (inactive) | 12.2 µM (inactive)
COc1ccc(OC)c2c1C[C@@H]1C(C#N)N3[C@H](Cc4c(OC)ccc(OC)c4[C@@H]3C)C(=O)N1[C@H]2C (stereo not given in full) | 3.01 µM (inactive) | 9.53 µM (inactive) | 5.77 µM (inactive) | 3.83 µM (inactive) | 4.42 µM (inactive) | 2.27 µM (inactive) | 2.77 µM (inactive) | 3.33 µM (inactive) | 2.87 µM (inactive) | 7.85 µM (inactive) | 3.23 µM (inactive) | 2.53 µM (inactive) | 2.15 µM (inactive) | 14.9 µM (inactive) | 2.5 µM (inactive) | 4.42 µM (inactive) | 2.15 µM (inactive) | 3.11 µM (inactive) | 2.36 µM (inactive) | 2.25 µM (inactive)
O=C(CCCNc1nc(-c2ccccc2)cs1)c1cccs1 | > 100 µM (inactive) | > 100 µM (inactive) | > 100 µM (inactive) | > 100 µM (inactive) | > 100 µM (inactive) | > 100 µM (inactive) | > 100 µM (inactive) | > 100 µM (inactive) | > 100 µM (inactive) | > 100 µM (inactive) | > 100 µM (inactive) | > 100 µM (inactive) | > 100 µM (inactive) | > 100 µM (inactive) | > 100 µM (inactive) | > 100 µM (inactive) | > 100 µM (inactive) | > 100 µM (inactive) | > 100 µM (inactive) | > 100 µM (inactive)
CCCCCCCCCCCCC1NC(=N)NC2(CCCO2)C1C(=O)OC (stereo not given) | 4.24 µM (inactive) | 13.1 µM (inactive) | 17.5 µM (inactive) | 2.47 µM (inactive) | 2.72 µM (inactive) | 1.91 µM (inactive) | 1.84 µM (inactive) | 3.34 µM (inactive) | 2.23 µM (inactive) | 2.99 µM (inactive) | 5.51 µM (inactive) | 2.61 µM (inactive) | 3.84 µM (inactive) | 9.73 µM (inactive) | 4.9 µM (inactive) | 8.02 µM (inactive) | 2.76 µM (inactive) | 6.4 µM (inactive) | 3.89 µM (inactive) | 15.3 µM (inactive)
C=C1C(=O)OC2/C=C(\C)CC/C=C(\C)CC(OC(=O)/C(=C/CO)CO)[C@@H]12 (stereo not given in full) | 4.84 µM (inactive) | 23.4 µM (inactive) | 15.2 µM (inactive) | 3.27 µM (inactive) | 27.2 µM (inactive) | 2.65 µM (inactive) | 18.1 µM (inactive) | 5.75 µM (inactive) | 2.38 µM (inactive) | 22.1 µM (inactive) | 13.1 µM (inactive) | 1.61 µM (inactive) | 20.7 µM (inactive) | 70.8 µM (inactive) | 12.2 µM (inactive) | 13.6 µM (inactive) | > 51.4 µM (inactive) | 3.97 µM (inactive) | 17.7 µM (inactive) | 11.6 µM (inactive)
